Measurements taken from US10364242B2, “Modulation of N-acylethanolamine-hydrolysing acid amidase (NAAA) for disease treatment” (FONDAZIONE ISTITUTO ITALIANO DI TECNOLOGIA, priority 2017, dated 2019).

Assays:
[1] = biological target: h-FAAH1 (Fatty Acid Amide Hydrolase) (Homo sapiens (Human), UniProt O00519); experiment: Fluorogenic h-FAAH assay; assay type: biochemical; settings: AMC arachidonoyl amide 800 nM, pH 7.4, 50 min pre-incubation
Description: (§1) Human recombinant proteins were obtained from HEK-293 stable overexpressing NAAA, AC and FAAH cell lines, respectively. Cells were grown in Dulbecco's modified Eagle medium (DMEM) containing 10% FBS, 1% penicillin/streptomycin, 1% glutamine and 500 μg/mL G418. To obtain membrane preparation cells were scraped off with cold phosphate-buffered saline (PBS) and collected by centrifugation (300×g, 7 min, 4° C.). Cell pellets were stored at −80° C. until protein preparation.
Preparation of membrane-enriched lysate (h-FAAH). […]
The fluorescent assay to measure FAAH activity was performed in 96 wells black plates: 2.5 μg of human FAAH-1 membrane preparation were pre-incubated for 50 min at 37° C., in 190 μL of assay buffer (50 mM TrisHCl pH 7.4, 0.05% Fatty acid-free BSA) with 5 μL of inhibitor or 5 μL DMSO to measure FAAH total activity. […] The reaction was carried out for 45 minutes at 37° C. and fluorescence was measured with EnVision 2014 Multilabel Reader (PerkinElmer, Massachusetts, USA) (excitation wavelength 355 nm/emission wavelength 460 nm). The concentration causing half-maximal inhibition (IC50) was determined by nonlinear regression analysis of the Log [concentration]/response curves generated with mean replicate values using a four-parameter Hill equation curve fitting with GraphPad Prism 5 (GraphPad Software Inc., CA, USA).

h-AC (Acid Ceramidase) = h-AC (Acid Ceramidase) (Homo sapiens (Human), UniProt Q13510); experiment: Fluorogenic h-AC assay; assay type: biochemical; settings: pH 4.5, 10 min pre-incubation
h-AC (Acid Ceramidase), sequence (Q13510 22-395): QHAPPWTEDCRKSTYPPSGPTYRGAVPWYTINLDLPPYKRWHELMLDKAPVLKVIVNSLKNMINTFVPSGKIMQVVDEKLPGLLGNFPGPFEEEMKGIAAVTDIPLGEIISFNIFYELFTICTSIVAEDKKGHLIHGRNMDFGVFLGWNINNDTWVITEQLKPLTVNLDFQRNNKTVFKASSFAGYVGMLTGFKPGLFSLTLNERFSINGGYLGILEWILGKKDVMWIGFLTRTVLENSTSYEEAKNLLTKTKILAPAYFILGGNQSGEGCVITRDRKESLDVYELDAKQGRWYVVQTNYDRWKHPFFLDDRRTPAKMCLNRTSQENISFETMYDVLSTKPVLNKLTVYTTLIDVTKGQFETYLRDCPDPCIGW
Description: as §1
(§2) Preparation of enzyme-enriched lysate (h-NAAA and hAC). HEK-293 cells stably transfected with the human NAAA or human AC coding sequences were used as enzyme source. […] The suspension was finally ultracentrifuged at 105,000×g for 1 h at 4° C., supernatants were collected, protein concentration was measured and samples aliquoted and stored at −80° C. until use.
The assay was run in 96-well microplates (Black OptiPlate™-96 F; PerkinElmer, Massachusetts, USA) in a total reaction volume of 100 μL. h-AC protein preparation (2.0 μg) was pre-incubated for 10 min with various concentrations of test compounds or vehicle control (DMSO 5%) in 25 mM sodium acetate buffer (pH 4.5). […] Fluorescence was measured with EnVision 2014 Multilabel Reader (PerkinElmer, Massachusetts, USA) using an excitation wavelength of 355 nm and emission 460 nm. […]

[2] = tested on: sciatic nerve chronic constriction injury (CCI) model of persistent hyperalgesia and allodynia; experiment: Chronic Constriction Injury (CCI) of the sciatic nerve; assay type: in vivo; settings: mice
Description: Sciatic nerve ligations were performed according to Bennett and Xie (Pain. 1988, 33, 87-107). Adult male CD1 mice were anesthetized with 2-3% isoflurane, and the left sciatic nerve was exposed at mid-thigh level through a small incision and tied at two distinct sites (spaced at a 2-mm interval) with a silk thread. The wound was closed with a single muscle suture and skin clips, and dusted with streptomycin. In sham-operated animals, the nerve was exposed but not tied. All experiments were performed in a quiet room, and experimenters were blinded to the treatment protocol at the time of the test.
Heat hyperalgesia was assessed by the method of Hargreaves et al. (Pain. 1988, 32, 77-88) measuring the latency to withdraw the hind paw from a focused beam of radiant heat (thermal intensity: infrared 3.0) applied to the plantar surface in a plantar test apparatus (Ugo Basile). The cutoff time was set at 30 s.
Tactile allodynia (dynamic plantar esthesiometer; Ugo Basile) was assessed as described by La Rana et al. (Neuropharmacology 2008, 54,521-529) using the Von Frey dynamic plantar aesthesiometer (DPA). Animals were placed individually in a small testing arena (20 cm×18.5 cm×13 cm) with a wire mesh floor for 5 min. The DPA device was positioned beneath the animal, so that the filament was directly under the plantar surface of the paw to be tested. […] The DPA automatically records the force at which the paw is withdrawn and the withdrawal latency (latency and maximum force are directly related, because the device progressively increases force until withdrawal occurs). Mechanical hyperalgesia was recorded according to the Randall Sellito measurement.
ARN16186 was then studied for its ability to alleviate established chronic pain condition (therapeutic effect). The compound was tested in the sciatic nerve chronic constriction injury (CCI) model of persistent hyperalgesia and allodynia in mice, a model that has both inflammatory and neuropathic pain components. ARN16186 (0.3, 1.0, 3.0 and 10 mg kg^−1, p.o.) was administered on day 7 and day 14, after left sciatic nerve ligation, and pain readouts were measured 2 h after dosing.

h-NAAA [3] = biological target: T1, h-NAAA (Homo sapiens (Human), UniProt Q02083); experiment: Inhibitors recovery assay (LC/MS); assay type: biochemical; settings: LC/MS recovery study, 1 μM compound, 2 h at 37° C. with h-NAAA
Description: FIG. 2 is a histogram resulting from the inhibitors recovering assay: ordinate: % recovery of compounds after h-NAAA incubation; ARN16186 and covalent inhibitor ARN15393 were incubated with NAAA (right bars) or buffer alone (left bars) and quantified in supernatant after protein precipitation;
(§3) h-NAAA was produced and purified from h-NAAA overexpressing HEK293 cell line as described (ACS Med Chem Lett 2012, 3, 422-426). The purified enzyme was incubated in activation buffer [100 mM Sodium Phosphate/Sodium Citrate Buffer, 3 mM DL-dithiothreitol (DTT), 0.1% Triton X100, pH 4.5] for 3 h at 37° C. and the enzyme activation was checked by SDS-PAGE and Coomassie blue staining.
h-NAAA (25 μL of a 2 μM solution) was incubated with ARN16186 or covalent inhibitor ARN15393 at the concentration of 1 μM in activation buffer, 2 h at 37° C. Samples were next precipitated with ten volumes of acetonitrile and centrifuged 10 min at 12000×g. The supernatants were recovered and analysed by LCMS/MS for the presence of the added compound. No-protein control samples (buffer only) were used as 100% recovery reference. Compound was detected and quantified using a Waters ACQUITY UPLC/MS TQD system consisting of a TQD (Triple Quadrupole Detector) mass spectrometer, equipped with an electrospray ionization interface. […] Compound was quantified monitoring its MRM peak area. […]
Target sequence in this assay (Q02083 29-125): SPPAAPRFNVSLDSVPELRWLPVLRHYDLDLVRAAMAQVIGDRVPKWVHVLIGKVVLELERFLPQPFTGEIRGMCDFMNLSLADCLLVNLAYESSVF
Target sequence in this assay (Q02083 126-359): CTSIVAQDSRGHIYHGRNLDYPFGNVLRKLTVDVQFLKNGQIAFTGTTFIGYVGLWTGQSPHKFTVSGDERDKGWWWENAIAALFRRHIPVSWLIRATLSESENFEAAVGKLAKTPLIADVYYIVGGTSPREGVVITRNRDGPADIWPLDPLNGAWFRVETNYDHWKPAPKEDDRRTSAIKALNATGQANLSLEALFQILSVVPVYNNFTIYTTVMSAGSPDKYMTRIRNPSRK

h-NAAA [4] = biological target: T1, h-NAAA; experiment: Fluorogenic h-NAAA assay; assay type: biochemical; settings: PAMCA substrate 2.0 μM, pH 4.5, 30 min pre-incubation
Description: as §1, §2
Target sequence in this assay (Q02083 29-359): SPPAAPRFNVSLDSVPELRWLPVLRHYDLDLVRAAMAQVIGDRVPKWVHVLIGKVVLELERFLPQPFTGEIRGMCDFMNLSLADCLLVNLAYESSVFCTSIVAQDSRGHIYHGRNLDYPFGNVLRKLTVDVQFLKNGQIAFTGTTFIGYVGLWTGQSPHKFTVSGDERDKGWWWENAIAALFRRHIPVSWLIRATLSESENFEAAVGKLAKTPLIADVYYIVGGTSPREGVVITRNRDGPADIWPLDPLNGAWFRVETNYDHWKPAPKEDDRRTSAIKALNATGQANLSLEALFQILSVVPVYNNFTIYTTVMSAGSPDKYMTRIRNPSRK
The assay was run in 96-well microplates (Black OptiPlate™-96 F; PerkinElmer, Massachusetts, USA), in a total reaction volume of 200 μL. h-NAAA protein preparation (4.0 μg) was pre-incubated for 30 min with various concentrations of test compounds or vehicle control (DMSO 5%) in 100 mM citrate/phosphate buffer (pH 4.5) containing 3.0 mM DTT, 0.1% NP40 0.1%, 0.05% BSA, 150 mM NaCl. […] Fluorescence was measured with EnVision 2014 Multilabel Reader (PerkinElmer, Massachusetts, USA) using an excitation wavelength of 355 nm and emission 460 nm. […]

h-NAAA [5] = biological target: T1, h-NAAA; experiment: Competitive Activity Based Protein Profiling (ABPP); assay type: biochemical; settings: 20 μM, lysosomal extracts of h-NAAA overexpressing HEK293 cells, probe ARN14686
Description: FIG. 1 is a picture showing the SDS-PAGE analysis resulting from the Competitive Activity Based Protein Profiling (ABPP): in summary, lysosomal extracts of h-NAAA overexpressing HEK293 cells were incubated with a vehicle (2% DMSO), ARN15393 (covalent h-NAAA inhibitor) or ARN16186, for 2 h before addition of probe ARN14686; a rhodamine fluorophore was inserted by a click chemistry. The arrow indicates NAAA;
as §3
Target sequence in this assay (Q02083 29-359): as above
For competitive ABPP, 50 μL of lysosomal enrichment (0.5 mg/mL) from of h-NAAA-overexpressing HEK293 cell line were incubated 2 h at 37° C. with ARN16186 or covalent inhibitor ARN15393^(*^) at a final concentration of 20 μM (DMSO 2%). At the end of this pre-incubation time, the activity based probe undec-10-ynyl-N—[(S)-2-oxoazetidin-3-yl]carbamate (ARN14686) (ACS Chem. Biol. 2015, 10, 2057-2064) was added at 20 μM for 15 min or for 3.5 h at 37° C. […] Samples (10 μL) were analysed by SDS-PAGE and gel florescence was scanned at 532 nm wavelength (Fuji Film FLA-9000 instrument).

h-NAAA [6] = biological target: T1, h-NAAA; experiment: Dialysis test (reversibility of inhibition); assay type: biochemical
Target sequence in this assay (Q02083 29-359): as above

[7] = single administration 0.3, 1.0, 3.0 and 10 mg kg^−1 p.o., day 7 and day 14 after ligation, 2 h after dosing, dose-dependent

h-FAAH1 (Fatty Acid Amide Hydrolase), sequence (O00519 whole entry): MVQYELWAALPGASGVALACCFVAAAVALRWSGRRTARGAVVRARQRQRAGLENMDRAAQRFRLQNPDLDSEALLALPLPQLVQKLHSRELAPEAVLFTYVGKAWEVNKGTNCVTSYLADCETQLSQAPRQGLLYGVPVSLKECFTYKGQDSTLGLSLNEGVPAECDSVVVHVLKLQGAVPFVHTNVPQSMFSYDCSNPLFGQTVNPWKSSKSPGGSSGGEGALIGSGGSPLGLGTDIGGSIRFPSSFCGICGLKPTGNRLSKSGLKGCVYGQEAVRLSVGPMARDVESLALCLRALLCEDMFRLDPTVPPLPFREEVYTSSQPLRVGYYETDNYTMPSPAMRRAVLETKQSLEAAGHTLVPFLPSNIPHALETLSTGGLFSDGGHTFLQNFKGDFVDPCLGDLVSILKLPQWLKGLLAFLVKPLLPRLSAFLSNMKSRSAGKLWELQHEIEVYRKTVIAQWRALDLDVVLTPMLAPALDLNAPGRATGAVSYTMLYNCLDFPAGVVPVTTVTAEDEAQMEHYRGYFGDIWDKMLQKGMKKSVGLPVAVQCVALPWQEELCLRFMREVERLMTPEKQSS

Compound: CCCCc1ccc(OC2CC3CCC(C2)N3S(=O)(=O)c2c(C)n[nH]c2C)cc1 (stereo not drawn) [ARN16186, (endo)-3-(4-butylphenoxy)-8-[(3,5-dimethyl-1H-pyrazol-4-yl)sulfonyl]-8-azabicyclo[3.2.1.]octane]
- IC50 [1]: > 30 µM
- IC50 (h-AC (Acid Ceramidase)): > 30 µM
- dose with full effect on hyperalgesia and allodynia ([2]; p.o., single administration, readout 2 h after dosing): 10 mg/kg
- mechanical hyperalgesia [2, 7]: reduce significantly
- tactile allodynia [2, 7]: reduce significantly
- thermal hyperalgesia [2, 7]: reduce significantly
- mechanism of inhibition (h-NAAA [3]): non-covalent
- IC50 (h-NAAA [4]): 0.023 ± 0.004 µM
- mechanism of inhibition (h-NAAA [5]): non-covalent
- recovery in a dialysis test (h-NAAA [6]; after 24 h): ca. 30%
- mode of inhibition (dialysis test) (h-NAAA [6]; after 24 h dialysis): partially reversible
